Patent US20240360165A1, “INHIBITORS OF CYCLIN DEPENDENT KINASE 7 (CDK7)” (Syros Pharmaceuticals, Inc., priority 2016, published 2024)
Like-named read-outs stand apart in the source and are kept apart here.

How the values were obtained:
[1] = biological target: CDK7/Cyclin H/MAT1 complex (Homo sapiens, UniProt P50613); assay: CDK7 inhibition assay (Caliper/LabChip EZ Reader kinase assay); assay type: biochemical; conditions: Table 1, CDK7/Cyclin H/MAT1 6 nM, ATP 2 mM, 35 min at 27° C.
In short: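 A Perkin Elmer Caliper/LabChip EZ Reader (Waltham, MA) platform served as the basis for this CDK7 kinase inhibition assay. The work was carried out by Biortus Biosciences, located in Jiangyin, Jiangsu Province, P.R. of China. Each CDK studied had its own kinase assay, and compounds were evaluated for their ability to block CDK7 activity.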

[2] = biological target: CDK9/Cyclin T1 complex (Homo sapiens, UniProt P50750); assay: CDK9 inhibition assay (Caliper/LabChip EZ Reader kinase assay); assay type: biochemical; conditions: Table 1, CDK9/Cyclin T1 8 nM, ATP 2 mM, 15 min at 27° C.
In short: (§1)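 Caliper/LabChip EZ Reader mobility-shift assays. CDK9/Cyclin T1 at 8 nM with 2 μM 5-FAM-CDK9tide peptide and 10 mM MgCl2; CDK2/Cyclin E1 at 0.5 nM with 2 μM 5-FAM-CDK7tide and 2 mM MgCl2.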

[3] = biological target: T1, CDK12 (aa686-1082)/Cyclin K complex (Homo sapiens, UniProt Q9NYV4); assay: CDK12 inhibition assay (Caliper/LabChip EZ Reader kinase assay); assay type: biochemical; conditions: Table 1, CDK12 (aa686-1082)/Cyclin K 50 nM, ATP 2 mM, 3 hr at 27° C.
T1 construct: CDK12 (aa686-1082)/Cyclin K complex

[4] = biological target: CDK2/Cyclin E1 complex (Homo sapiens, UniProt P24941); assay: CDK2 inhibition assay (Caliper/LabChip EZ Reader kinase assay); assay type: biochemical; conditions: Table 1, CDK2/Cyclin E1 0.5 nM, ATP 2 mM, 35 min at 27° C.
In short: as §1

[5] = system: A673 cells; assay: Inhibition of proliferation of A673 cells (CyQUANT, 72 hour); assay type: cell-based, human; conditions: A673 cells, 72 hour, CyQUANT, read-out: Inhibition of Proliferation of A673 Cells (calculated IC50)
In short: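 Human Ewing's sarcoma A673 cells in DMEM with 10% FBS and 1 mM sodium pyruvate, 37° C, 5% CO2, treated 72 h with compound from 4 μM to […] (0.5 log dilutions). Antiproliferative effect read by CyQUANT assay.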

[6] = system: HCC70 cells; assay: Inhibition of proliferation of HCC70 cells (CyQUANT Direct Cell Proliferation Assay, 72 hour); assay type: cell-based, human; conditions: read-out: Inhibition of Proliferation of HCC70 Cells (calculated IC50)
In short: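 Human triple-negative breast cancer HCC70 cells cultured at 37° C, 5% CO2, with compound for 72 hour. Anti-proliferative effect read by CyQUANT Direct Cell Proliferation Assay. Dinaciclib, a CDK inhibitor analog and triptolide served as positive controls.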

Chain of CDK9/Cyclin T1 complex (P50750 whole entry, species assumed): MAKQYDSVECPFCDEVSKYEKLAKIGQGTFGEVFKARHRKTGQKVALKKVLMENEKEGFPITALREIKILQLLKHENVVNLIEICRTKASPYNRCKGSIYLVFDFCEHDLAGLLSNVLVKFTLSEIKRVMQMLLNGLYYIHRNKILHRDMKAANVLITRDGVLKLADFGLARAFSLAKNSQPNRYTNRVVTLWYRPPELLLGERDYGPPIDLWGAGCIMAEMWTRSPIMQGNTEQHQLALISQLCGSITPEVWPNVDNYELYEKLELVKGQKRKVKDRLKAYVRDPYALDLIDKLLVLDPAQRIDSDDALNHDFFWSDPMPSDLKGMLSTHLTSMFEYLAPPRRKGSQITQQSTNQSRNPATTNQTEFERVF
Chain of CDK9/Cyclin T1 complex (O60563 whole entry partner, species assumed): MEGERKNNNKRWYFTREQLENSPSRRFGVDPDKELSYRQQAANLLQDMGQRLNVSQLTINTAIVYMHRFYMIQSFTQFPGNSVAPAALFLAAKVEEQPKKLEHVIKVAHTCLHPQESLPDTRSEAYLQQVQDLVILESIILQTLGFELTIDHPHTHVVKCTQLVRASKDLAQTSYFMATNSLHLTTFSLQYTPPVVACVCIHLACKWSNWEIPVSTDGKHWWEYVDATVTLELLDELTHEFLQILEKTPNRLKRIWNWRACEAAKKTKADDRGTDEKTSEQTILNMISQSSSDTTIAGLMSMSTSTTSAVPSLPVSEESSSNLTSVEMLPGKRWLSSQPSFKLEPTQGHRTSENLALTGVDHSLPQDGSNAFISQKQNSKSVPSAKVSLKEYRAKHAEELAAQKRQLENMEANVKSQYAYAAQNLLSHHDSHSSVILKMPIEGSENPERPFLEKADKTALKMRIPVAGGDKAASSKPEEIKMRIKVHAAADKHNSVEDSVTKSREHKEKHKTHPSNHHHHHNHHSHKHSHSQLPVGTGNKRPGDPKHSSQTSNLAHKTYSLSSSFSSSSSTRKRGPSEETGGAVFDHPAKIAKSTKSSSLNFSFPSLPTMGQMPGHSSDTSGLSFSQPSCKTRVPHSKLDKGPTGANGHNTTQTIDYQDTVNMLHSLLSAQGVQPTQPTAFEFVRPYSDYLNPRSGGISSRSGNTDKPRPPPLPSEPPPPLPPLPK
Chain of CDK7/Cyclin H/MAT1 complex (P50613 whole entry, species assumed): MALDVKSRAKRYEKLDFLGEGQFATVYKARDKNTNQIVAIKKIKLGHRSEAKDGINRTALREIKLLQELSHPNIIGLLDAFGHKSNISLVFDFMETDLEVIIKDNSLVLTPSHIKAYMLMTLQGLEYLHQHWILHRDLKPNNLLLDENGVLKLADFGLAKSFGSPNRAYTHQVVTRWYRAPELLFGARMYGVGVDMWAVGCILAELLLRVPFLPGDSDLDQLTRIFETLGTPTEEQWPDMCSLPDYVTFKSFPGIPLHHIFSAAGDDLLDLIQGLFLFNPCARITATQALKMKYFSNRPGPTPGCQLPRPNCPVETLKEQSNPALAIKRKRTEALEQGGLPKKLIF
Chain of CDK7/Cyclin H/MAT1 complex (P51946 whole entry partner, species assumed): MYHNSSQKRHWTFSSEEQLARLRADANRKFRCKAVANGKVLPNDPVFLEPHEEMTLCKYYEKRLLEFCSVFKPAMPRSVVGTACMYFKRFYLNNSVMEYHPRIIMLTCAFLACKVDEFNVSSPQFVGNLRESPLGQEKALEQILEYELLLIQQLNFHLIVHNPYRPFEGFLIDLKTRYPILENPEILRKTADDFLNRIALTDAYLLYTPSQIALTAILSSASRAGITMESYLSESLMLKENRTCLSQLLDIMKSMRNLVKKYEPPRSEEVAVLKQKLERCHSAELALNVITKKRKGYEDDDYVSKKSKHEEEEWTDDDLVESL
Chain of CDK7/Cyclin H/MAT1 complex (P51948 whole entry partner, species assumed): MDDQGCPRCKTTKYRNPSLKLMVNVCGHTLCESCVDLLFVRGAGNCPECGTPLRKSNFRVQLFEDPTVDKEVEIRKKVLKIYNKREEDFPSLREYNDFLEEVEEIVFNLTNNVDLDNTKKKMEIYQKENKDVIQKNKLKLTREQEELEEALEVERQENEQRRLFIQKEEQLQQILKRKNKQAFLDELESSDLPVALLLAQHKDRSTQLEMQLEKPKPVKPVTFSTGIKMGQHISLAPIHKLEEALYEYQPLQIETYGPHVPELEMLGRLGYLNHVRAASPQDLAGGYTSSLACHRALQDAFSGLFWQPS
T1 sequence (Q9NYV4 686-1082, species assumed): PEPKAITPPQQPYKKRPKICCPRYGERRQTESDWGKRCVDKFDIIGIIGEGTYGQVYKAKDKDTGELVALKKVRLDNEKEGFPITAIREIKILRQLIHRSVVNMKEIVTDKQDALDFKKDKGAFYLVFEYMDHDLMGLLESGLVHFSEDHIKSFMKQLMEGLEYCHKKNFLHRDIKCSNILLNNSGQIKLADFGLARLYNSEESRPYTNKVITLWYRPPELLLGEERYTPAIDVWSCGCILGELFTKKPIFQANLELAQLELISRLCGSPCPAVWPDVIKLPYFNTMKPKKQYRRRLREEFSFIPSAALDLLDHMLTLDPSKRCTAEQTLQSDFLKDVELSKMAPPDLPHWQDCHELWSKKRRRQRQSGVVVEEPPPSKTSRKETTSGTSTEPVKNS
T1 sequence (O75909 whole entry partner, species assumed, the tested form may be a part): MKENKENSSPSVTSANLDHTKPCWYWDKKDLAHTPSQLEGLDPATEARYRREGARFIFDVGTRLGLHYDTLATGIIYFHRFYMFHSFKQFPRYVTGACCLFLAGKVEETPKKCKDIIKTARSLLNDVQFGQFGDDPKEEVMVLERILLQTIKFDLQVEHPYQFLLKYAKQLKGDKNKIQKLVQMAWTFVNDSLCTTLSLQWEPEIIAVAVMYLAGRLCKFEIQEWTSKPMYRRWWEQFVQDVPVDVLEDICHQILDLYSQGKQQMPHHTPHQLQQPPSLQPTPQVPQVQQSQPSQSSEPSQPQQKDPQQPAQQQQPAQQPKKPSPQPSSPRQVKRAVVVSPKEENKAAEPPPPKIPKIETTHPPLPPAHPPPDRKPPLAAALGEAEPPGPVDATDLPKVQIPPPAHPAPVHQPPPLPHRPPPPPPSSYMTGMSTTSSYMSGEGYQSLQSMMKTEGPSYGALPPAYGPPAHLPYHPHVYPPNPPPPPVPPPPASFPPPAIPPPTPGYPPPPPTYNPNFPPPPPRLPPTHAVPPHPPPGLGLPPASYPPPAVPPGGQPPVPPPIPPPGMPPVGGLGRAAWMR

Row | SMILES | IC50 [1] [nM] | IC50 [2] [nM] | IC50 [3] [nM] | IC50 [4] [nM] | IC50 ([5]; Homo sapiens, A673, 72 h) [nM] | IC50 ([6]; Homo sapiens, HCC70, 72 h) [nM] | IC50 [5] [nM] | IC50 [6] [nM] | IC50 ([1]; listed as 108) [nM] | IC50 ([2]; listed as 108) [nM] | IC50 ([3]; listed as 108) [nM] | IC50 ([4]; listed as 108) [nM]
1 | FC(F)n1cc(-c2ccc3c(-c4nc(N[C@H]5CCCNC5)ncc4C(F)(F)F)c[nH]c3c2)cn1 [Compound 290, 4-[6-[1-(difluoromethyl)pyrazol-4-yl]-1H-indol-3-yl]-N-[(3S)-3-piperidyl]-5-(trifluoromethyl) pyrimidin-2-amine] | 20 to 200 | 200 to 5000 | 200 to 5000 | 200 to 5000 | 20 to 200 | 100 to 1000 |  |  |  |  |  | 
2 | OC1CCC(c2cccc3c(-c4nc(N[C@H]5CCCNC5)ncc4C(F)(F)F)c[nH]c23)CC1 (stereo partly shown) [Compound 185] | < 20 | 200 to 5000 | 200 to 5000 | 20 to 200 |  |  | < 20 | < 100 |  |  |  | 
3 | Cc1n[nH]cc1-c1cccc2c(-c3nc(NC4CCCNC4)ncc3C(F)(F)F)c[nH]c12 (stereo in doubt) [Compound 175] | < 20 | 20 to 200 | 200 to 5000 | 200 to 5000 | < 20 | 1000 to 5000 |  |  |  |  |  | 
4 | FC(F)(F)c1cnc(N[C@H]2CCCNC2)nc1-c1c[nH]c2c(-c3ccnnc3)cccc12 [Compound 180] | < 20 | 200 to 5000 | 20 to 200 | 20 to 200 | < 20 | < 100 |  |  |  |  |  | 
5 | N#Cc1ccc2c(-c3nc(N[C@H]4CCCNC4)ncc3C(F)(F)F)c[nH]c2n1 [Compound 251, 3-[2-[[(3S)-3-piperidyl]amino]-5-(trifluoromethyl)pyrimidin-4-yl]-1H-pyrrolo [2,3-b] pyridine-6-carbonitrile] | < 20 | 200 to 5000 | 200 to 5000 | 200 to 5000 | < 20 | < 100 |  |  |  |  |  | 
6 | N#C[C@H]1CCN(C(=O)c2ccc3c(-c4nc(N[C@H]5CCCNC5)ncc4C(F)(F)F)c[nH]c3c2)C1 [Compound 293, (3S)-1-[3-[2-[[(3S)-3-piperidyl]amino]-5-(trifluoromethyl)pyrimidin-4-yl]-1H-indole-6-carbonyl] pyrrolidine-3-carbonitrile] | < 20 | 200 to 5000 | 200 to 5000 | 200 to 5000 |  | 100 to 1000 | 200 to 5000 |  | 20 to 200 | 200 to 5000 | 200 to 5000 | 200 to 5000
7 | Cn1cc(-c2nc(NC3CCCNC3)ncc2C(F)(F)F)c2cccc(C#N)c21 (stereo not shown) [Compound 279] | 20 to 200 | > 5000 | > 5000 | > 5000 | 200 to 5000 | 1000 to 5000 |  |  |  |  |  | 
8 | CS(=O)(=O)c1ccc2c(-c3nc(N[C@H]4CCCNC4)ncc3C(F)(F)F)c[nH]c2c1 [Compound 199, 4-(6-methylsulfonyl-1H-indol-3-yl)-N-[(3S)-3-piperidyl]-5-(trifluoromethyl) pyrimidin-2-amine] | < 20 | 200 to 5000 | 200 to 5000 | 200 to 5000 | < 20 | 100 to 1000 |  |  |  |  |  | 
9 | N#Cc1ccc2c(-c3nc(N[C@H]4CCCNC4)ncc3C(F)(F)F)c[nH]c2c1-c1ccnnc1 [Compound 261, 3-[2-[[(3S)-3-piperidyl]amino]-5-(trifluoromethyl)pyrimidin-4-yl]-7-pyridazin-4-yl-1H-indole-6-carbonitrile] | 20 to 200 | 200 to 5000 | 200 to 5000 | 200 to 5000 | < 20 | < 100 |  |  |  |  |  | 
